According to patent publication US7395112B2, “Method and apparatus for treating tumors using low strength electric fields” (priority 2002, dated 2008):

How the values were obtained:
B16-F10.9 melanoma [1] = assay: LEFCT-EC in mice bearing subcutaneous B16-F10.9 melanoma; assay type: in vivo, C57BL/6 mice; details: for Tumor size (mean ± standard error): 7 days after treatment
Experimental: Animals: C57BL/6 male mice were obtained from the breeding colony of Tel-Aviv University, Israel. Mice were used at 8-12 weeks of age. Animal care and experimentation was carried out in accordance with Tel-Aviv University guidelines.
Melanoma tumor cell line: The highly metastatic, poorly immunogenic B16-F10.9 (F10.9) subclone of the B16 melanoma cell line was used to generate melanoma tumors in mice (Eisenbach L. et al., 1984. Int J Cancer 34:567). Cells were maintained in DMEM supplemented with 100 U/ml penicillin, 100 μg/ml streptomycin, 4 mM glutamine, 1 mM sodium pyruvate, 1% non-essential amino acids and 10% heat-inactivated fetal calf serum (FCS); and were cultured at 37° C. in a humidified incubator in an atmosphere of 7% carbon dioxide and 93% air.
Tumor generation protocol: F10.9 tumors were induced in C57BL/6 mice by subcutaneous injection of 2×10^5 F10.9 cells. Mice were subjected to experimental treatments once tumors reached 5 mm in diameter (about 60-70 mm^3). Chemotherapeutic drugs: The following chemotherapeutic drugs used were: cis-platinum (II) diamminedichloride (cisplatin; #P-4394, Sigma, Israel), dissolved in PBS for injections; Taxol (Mead Johnson Oncology Products, A Bristol-Myers Squibb, USA), obtained as a sterile nonpyrogenic solution containing 6 mg/ml paclitaxel, 527 mg/ml of purified Cremophor EL (polyoxyethylated castor oil) and 5-FU (Abic, Israel).
Low-strength electric field enhanced cancer therapy protocol: Mice were subjected to a single treatment of LEFCT-EC, once tumors reached 5 mm in diameter (11-17 days following tumor cell inoculation). Volumes of up to 100 μl of chemotherapeutic agents were injected into tumor loci, and exposures to electric fields were carried out 3-4 min following intratumoral injection of chemotherapeutic agents. To expose tumors to electric fields, stainless steel electrode needles (Karlsbader insect pins No 0. BioQuip Products, USA) soldered at their brassy ends with thin isolated copper wires were used. Electrodes were inserted to a depth of about 7 mm percutaneously into and in the immediate vicinity of the tumor; one cathode needle in the center of the tumor and three peripheral anodes, at a distance of about 5 mm from the cathode. The needles were connected to an electric pulse generator (Grass S48 Stimulator, USA). The field strength applied was about 40 V/cm; the repetition frequency, 500 Hz; and the pulse width, 180 μs. All mice were anesthetized prior to LEF treatment.
Statistical analysis: Statistical analysis of survival times (Kaplan-Meir test), survival comparisons between groups (Mantel-Cox test) and tumor volume differences between groups (Kolmogorov-Smirnov test) were performed using StatSoft Statistica statistical software. The 10-15% mortality rate in the 5 days following LEF or LEF-chemotherapy was considered as treatment-caused, therefore such cases of mortality were excluded.
Tumor volume determination: performed as described above in Example 1 of the Examples section.

CT-26 colon carcinoma [2] = assay: LEF with chemotherapy (LEFCT-EC) in mice bearing 5 mm CT-26 tumors; assay type: in vivo, BALB/C mice
Experimental: Mice: BALB/C male mice were obtained from the breeding colony of Tel-Aviv University, Israel. Mice were used at 8-12 weeks of age. Animal care and experimentation were performed in accordance with the Tel-Aviv University guidelines.
Tumor: Colon carcinoma tumors were grown in mice with CT-26, a metastatic colon carcinoma cell line induced in a BALB/c mouse by chemical carcinogenesis. Cells were cultured in Dulbecco's modified Eagle's medium (DMEM) supplemented with 100 U/ml penicillin, 100 μg/ml streptomycin, 2 mM L-glutamine; 1 mM sodium pyruvate; 1% non-essential amino acid solution; 10% heat-inactivated fetal calf serum. Cultures were maintained at 37° C. in a humidified incubator with a 5% CO2 atmosphere.
Tumor cell inoculation: Mice were inoculated intracutaneously with 10^5 CT-26 cells suspended in 100 μL PBS into the low lateral side of the back. Local tumor growth was determined by measuring three mutually orthogonal tumor diameters with a caliper. The volume of tumor was calculated using the formula: Vol=D1×D2×D3×π/6, where D1, D2, D3 are three mutually orthogonal tumor diameters.
(§1) Low-strength electric field stimulation: To subject tumors to LEFs, stainless steel needles were used as electrodes. Tumors 5 mm in diameter (about 65 mm^3) were transfixed by electrode needles, with one cathode in the center of the tumor and three or four peripheral anodes. The electrodes were connected to an electric pulse generator and to an oscilloscope. Pulsed LEFs with a repetition frequency of 500 Hz and a pulse width of 180 μs were applied at 20, 40, 60 and 70 V/cm for a duration 12 min or 20 min. The electric pulses were administered 2-4 min following chemotherapeutic drug administration. Mice were anesthetized 10 min before the procedure.
(§2) Chemotherapeutic agents: Bleomycin (Sigma Israel Chemicals Ltd., Israel; Megapharm Ltd., Israel) was kept at a temperature of 2-8° C., and was dissolved in pyrogen-free PBS to a concentration enabling dosages of 50 U/kg body weight prior to use. BCNU was administered at a dosage of 35 mg/kg body weight, and 5-FU (Abic, Israel) was used at a dose of 100 mg/kg body weight.
Anesthesia: Mice were anesthetized using an anesthetic cocktail comprising a dose of imalgen at 100 mg/kg body weight and xylazine hydrochloride at 6.25 mg/kg body weight dissolved in PBS injected intraperitoneally in a volume of 0.25 ml per mouse 10 min prior to LEF treatment.
Statistical analysis: Survival times (Kaplan-Meir test), survival comparisons between groups (Mantel-Cox test), and tumor volume differences between groups were plotted using StatSoft “Statistica” statistical software.
Effect of LEF duration and strength on potentiation of bleomycin for treatment of colon carcinoma: In order to determine the optimal LEFCT-EC/bleomycin therapy for treatment of colon cancer, mice bearing CT-26 tumors were treated with LEFs of 40 V/cm for 12 min, and 20 V/cm for 12 or 20 min with or without administration of bleomycin, and survival was analyzed.

CT-26 colon carcinoma [3] = assay: LEFCT-EC with BCNU in mice bearing large (10 or 15 mm) CT-26 tumors; assay type: in vivo, BALB/C mice; details: for time after which all mice were dead: BCNU 35 mg/kg only; for cure rate: LEF 40 V/cm 12 min + BCNU 35 mg/kg
Experimental: as §1, §2
Effect of LEFCT-EC with BCNU on CT-26 development in mice bearing large tumors: In order to examine the effectiveness of LEFCT-EC with BCNU on tumor development in mice with a large tumor burden, mice bearing tumors of 10 mm (about 523 mm^3) or 15 mm in diameter (about 1,760 mm^3). These animals were treated with 4 electrodes placed 7 mm apart.

CT-26 colon carcinoma [4] = assay: CT-26 cells inoculated with splenocytes from mice cured by LEFCT-EC with BCNU; assay type: in vivo, BALB/C mice; details: donors cured by LEFCT-EC with BCNU; tumor cells to splenocytes 1:100
Excerpt: Anti-tumor effect of splenocytes from tumor bearing mice cured by LEFCT-EC with BCNU: In order to examine whether development of resistance against challenge with CT-26 tumors in mice cured of such tumors via LEFCT-EC with BCNU is immunologically mediated, normal mice were inoculated with a dose of CT-26 tumor cells mixed with splenocytes from cured animals. […] Thus, curative LEFCT-EC+BCNU treatment of CT-26 tumor bearing mice induces immunological resistance to subsequent growth of such tumors in such mice.

CT-26 colon carcinoma [5] = test system: CT-26 colon carcinoma
B16-F10.9 melanoma [6] = assay: Rechallenge with B16-F10.9 cells of mice cured by LEFCT-EC; assay type: in vivo, C57BL/6 mice; details: mice cured by LEFCT-EC with the drug, challenged with 2×10^5 B16-F10.9 cells
Excerpt: FIG. 17 is a data plot depicting the cumulative survival of mice previously bearing B16-F10.9 melanoma and cured by LEFCT-EC with cisplatin or taxol following challenge with B16-F10.9 melanoma cells. Mice cured by LEF-chemotherapy that survived for 120-180 days after initial tumor inoculation, were challenged with 2×10^5 B16-F10.9 cells subcutaneously.
Effect of curative LEFCT-EC treatment on generation of anti B16-F10.9 tumor resistance: The resistance of mice cured of B16-F10.9 melanoma by LEF-chemotherapy was analyzed by challenging such cured mice with a tumorigenic dose of B16-F 10.9 melanoma cells.

[7] = LEF-CT (drug + LEF), cisplatin 4 mg/kg, bleomycin 8 U/kg, 5-FU 150 mg/kg, taxol 20 mg/kg
[8] = intratumoral drug injection alone, same doses
[9] = chemotherapy alone, intratumoral, no LEF

O=c1[nH]cc(F)c(=O)[nH]1 [5-FU, 5-fluorouracil]
Tumor size (mean ± standard error) (B16-F10.9 melanoma [1]; [7]): 143 ± 52 mm^3
Tumor size (mean ± standard error) (B16-F10.9 melanoma [1]; [8]): 460 ± 54 mm^3
time at which half of the mice were still alive (CT-26 colon carcinoma [2]; 5-FU 100 mg/kg intratumoral or intravenous + LEF 40 V/cm 12 min): 80 days

O=NN(CCCl)C(=O)NCCCl [BCNU]
tumor size with LEFCT-EC + BCNU relative to BCNU alone (CT-26 colon carcinoma [3]; 10 mm tumors): approximately an order of magnitude smaller
time after which all mice were dead (CT-26 colon carcinoma [3]; 10 mm tumors): 90 days
time after which all mice were dead (CT-26 colon carcinoma [3]; 15 mm tumors): 87 days
cure rate (CT-26 colon carcinoma [3]; 10 mm tumors): over 80%
cure rate (CT-26 colon carcinoma [3]; 15 mm tumors): 100%
survival (CT-26 colon carcinoma [3]; LEF with BCNU, 15 mm tumors, after 100 days): 100%
tumor detection (CT-26 colon carcinoma [3]; LEFCT-EC with BCNU, 15 mm tumors, after 42 days): no tumors were detected
tumor growth with splenocytes from cured mice (CT-26 colon carcinoma [4]): completely prevent growth of tumors
survival rate (CT-26 colon carcinoma [2]; BCNU 35 mg/kg intratumoral + LEF 40 V/cm 12 min, after 52 days, unchanged until day 110): 83%
survival (CT-26 colon carcinoma [2]; BCNU + LEF 40 V/cm, comparison with surgery, after about 60 days until about 120 days): 40%
cure rate (CT-26 colon carcinoma [2]; LEFCT-EC: drug + LEF 40 V/cm 12 min, 5 mm tumors): 83%
tumor size with drug only relative to drug + LEF (CT-26 colon carcinoma [2]; after 21 days): about triple the size
time after which half the mice died (CT-26 colon carcinoma [2]; drug alone, no LEF, intratumoral injection (5-FU intratumoral or intravenous), 5 mm tumors): about 48 days
tumor volume of reinoculated mice relative to first-time inoculated mice (CT-26 colon carcinoma [5]; after 18 days): about one order of magnitude smaller
day by which half of the cured and challenged mice were still alive (CT-26 colon carcinoma [5]; mice cured by LEFCT-EC with BCNU, challenged with 10^5 CT-26 cells): ~63 days

N.N.[Cl-].[Cl-].[Pt+2] [cisplatin, cis-platinum (II) diamminedichloride]
MST of challenged mice (B16-F10.9 melanoma [6]): 48.7 days
Tumor size (mean ± standard error) (B16-F10.9 melanoma [1]; [7]): 83 ± 57 mm^3
mean survival time (MST) (B16-F10.9 melanoma [1]; LEF-chemotherapy: intratumoral drug + LEF about 40 V/cm 12 min, 120 days (cisplatin) or 180 days (taxol, bleomycin) after inoculation): 51.1 days
animals tumor free (B16-F10.9 melanoma [1]; LEF-chemotherapy, 120 days after tumor inoculation): 13.5%
effect of drug alone on survival (B16-F10.9 melanoma [1]; [9]): no significant effect
mean survival time (MST) (B16-F10.9 melanoma [1]; [9]): 29.5 days
Tumor size (mean ± standard error) (B16-F10.9 melanoma [1]; [8]): 1684 ± 204 mm^3
LEFCT-EC treated mice that died two months and later after treatment with pulmonary metastatic foci, free of primary tumor (B16-F10.9 melanoma [1]; pooled statement for cisplatin, taxol or bleomycin): About 10%
